Assay results as given in patent US20020197269A1, “Pharmaceutical composition for immunomodulation and preparation of vaccines” (CISTEM BIOTECHNOLOGIES GMBH, priority 2000, published 2002).
In the oligonucleotide strings, read from the 5' end, every base follows the letter of its sugar. An asterisk marks phosphorothioate; unmarked linkages are phosphodiester. Other units and linkages are bracketed, terminal groups are in braces. A string of capitals states the bases alone. d = 2'-deoxy (DNA)

System: MC1R-peptide (WGPFFLHL) specific IFN-γ-producing cells
Assay: IFN-γ-ELISPOT after footpad injection with MC1R-peptide (Example 3)
Format: in vivo, Mice C57B1/6
Conditions: co-injected with MC1R-peptide 300 μg/mouse into hind footpads; 4 days after injection; CpG-ODN 5 nmol/mouse

In the case of “CpG 1668: thiophosphate substituted ODNs containing a CpG motif: TCCATGACGTTCCTGATGCT (DNA dT*dC*dC*dA*dT*dG*dA*dC*dG*dT*dT*dC*dC*dT*dG*dA*dT*dG*dC*dT)”, the “peptide-specific IFN-γ-producing cells / peptide-specific response (IFN-γ-ELISPOT)” value is reported as “low numbers”.
